# Molecular target: T1, human CSF1-R (FMS) (Homo sapiens, UniProt P07333)
# T1 construct: from codon I553 to Q961; GST (N); made in house; host or cells: Sf9 insect cells (baculovirus)
# T1 sequence (P07333 553-961): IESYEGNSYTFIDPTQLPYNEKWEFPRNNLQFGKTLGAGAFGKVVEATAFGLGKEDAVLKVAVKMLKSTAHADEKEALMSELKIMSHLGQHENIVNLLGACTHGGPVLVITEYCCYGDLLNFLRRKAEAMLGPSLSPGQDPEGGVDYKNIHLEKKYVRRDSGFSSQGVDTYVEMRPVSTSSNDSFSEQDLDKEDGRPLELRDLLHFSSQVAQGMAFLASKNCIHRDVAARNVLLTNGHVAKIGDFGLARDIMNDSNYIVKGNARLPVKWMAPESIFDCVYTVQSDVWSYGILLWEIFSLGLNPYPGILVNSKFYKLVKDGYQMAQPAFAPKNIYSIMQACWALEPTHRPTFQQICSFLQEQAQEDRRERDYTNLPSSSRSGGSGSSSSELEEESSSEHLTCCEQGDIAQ
# Assay: Alphascreen tyrosine kinase enzyme assay, CSF-1R (FMS) kinase domain
# Format: biochemical
# Conditions: read-out: FMS, FLT3, or HCK IC50_nM (FMS)
# Description: For screening purposes, compounds (in 100% DMSO) were warmed at 37 degrees for at least 20 minutes before use. A […] stock was initially made in assay buffer, where the final concentration of DMSO was 0.3%. The stocks were then diluted in 384 well Optiplates (Packard) where the final concentration of the compound was […].
# The kinase domain of human CSF1-R from codon I553 to Q961 was cloned into the pDest20 expression vector (Invitrogen). The CSF1-R plasmid was then transformed into competent DH10Bac cells (Gibco), and the recombinant baculovirus produced prepared for transfection into Sf9 insect cells.
# Baculovirus preparations from each of the constructs were infected into either one or five liters of Sf9 cells (Invitrogen) grown in SF-900 medium (Invitrogen) to a cell density of approximately 1-2×10^6 cells/ml. Cells were infected with virus at a MOI of 0.8-3.0. Cells were harvested and lysed. Tyrosine kinase domains were purified by affinity chromatography on a glutathione-agarose column (Scientifix Pty. Ltd. catalog #: GSH-200).
# Kinase assays were performed in 384 well Optiplates (Packard) using an Alphascreen Protein Tyrosine Kinase PY100 detection kit The compounds were pre-incubated with affinity purified PTK domain in the presence of phosphotyrosine assay buffer (10 mM HEPES, pH 7.5, 100 mM MgCl2, 25 mM NaCl, […] and 0.1% Tween 20) for 20 minutes. The compounds were then incubated with substrate in the presence of ATP. The substrate used was susbtrate-1 with the sequence biotin-EGPWLEEEEEAYGWMDF-NH2 [SEQ. ID. NO. 13] (final concentration […]). For HCK 80 μm ATP was used and incubated for 60 minutes. Alphascreen phosphotyrosine acceptor beads followed by streptavidin donor beads at a concentration of 1/100 in stop buffer were added to each well under subdued light and incubated for 2-3 hours., The Alphascreen plates were read on a Packard Fusion Alpha instrument.
row,Compound,IC50 [nM]
1,"C=CC(=O)Nc1ccc(Sc2ccnc(Nc3cc(C)cc(C)c3)n2)cc1 [Compound 82, N-(4-(2-(3,5-dimethylphenylao)pyrimidin-4-ylthio)phenyl)acrylamide]",< 500
2,"C=CC(=O)Nc1ccc(Sc2ccnc(Nc3cccc(N4CCOCC4)c3)n2)cc1 [Compound 77, N-(4-(2-(3-morpholinophenylao)pyrimidin-4-ylthio)phenyl)acrylamide]",< 500

# Source: patent US8846704B2, “Thiopyrimidine-based compounds and uses thereof” (YM Biosciences Austraila Pty Ltd, priority 2007, dated 2014)
